In general, Ki refers to the dissociation constant of the complex between target and ligand, obtained from inhibition or displacement. Lower therefore signals higher affinity.

For this assay, the target named is Histamine H4 receptor (Homo sapiens, UniProt Q9H3N8).

Molecules are shown by their SMILES. Values joined by “and” are separate entries in the source; they are usually repeats but may differ in a detail not shown here. Identical values can stand only once.

Chain of Histamine H4 receptor (Q9H3N8 whole entry): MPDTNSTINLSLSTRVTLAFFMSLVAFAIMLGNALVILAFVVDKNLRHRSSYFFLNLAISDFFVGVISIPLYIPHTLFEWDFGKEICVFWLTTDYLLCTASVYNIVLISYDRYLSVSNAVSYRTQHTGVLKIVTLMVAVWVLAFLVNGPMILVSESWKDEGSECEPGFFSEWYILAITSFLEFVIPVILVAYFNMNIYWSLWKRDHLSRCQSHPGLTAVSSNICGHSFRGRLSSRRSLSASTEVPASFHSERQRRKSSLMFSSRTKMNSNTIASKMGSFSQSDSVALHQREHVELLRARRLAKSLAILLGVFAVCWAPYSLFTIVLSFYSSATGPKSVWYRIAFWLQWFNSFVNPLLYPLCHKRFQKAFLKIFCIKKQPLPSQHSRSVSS

Consider `C[C@@H](N)Cc1c[nH]cn1`, for which the Ki is 348 nM and 232 nM.

Source of the values: BindingDB's records for doi:10.1124/mol.59.3.434 (Smithkline Beecham Pharmaceuticals, 2001).
